Consider one molecule from article PMC11671597, “The anticancer effect of metformin targets VDAC1 via ER-mitochondria interactions-mediated autophagy in HCC” (Experimental & Molecular Medicine, 2024).

The term Kd denotes the concentration at which binding is half-saturated. Lower therefore signals tighter binding.

The structures appear in SMILES notation.

This experiment deals with voltage-dependent anion channel 1 (VDAC1) (Homo sapiens, UniProt P21796). Nature of the experiment: microscale thermophoresis (MST); supported by dose-dependent DARTS in HepG2 mitochondrial lysate (EC50 […]) and loss of protection in D9A/E203A mutants. Format: binding. Background: Microscale thermophoresis detects binding through changes in fluorescence in a small temperature gradient.
Sequence of voltage-dependent anion channel 1 (VDAC1) (P21796 2-283): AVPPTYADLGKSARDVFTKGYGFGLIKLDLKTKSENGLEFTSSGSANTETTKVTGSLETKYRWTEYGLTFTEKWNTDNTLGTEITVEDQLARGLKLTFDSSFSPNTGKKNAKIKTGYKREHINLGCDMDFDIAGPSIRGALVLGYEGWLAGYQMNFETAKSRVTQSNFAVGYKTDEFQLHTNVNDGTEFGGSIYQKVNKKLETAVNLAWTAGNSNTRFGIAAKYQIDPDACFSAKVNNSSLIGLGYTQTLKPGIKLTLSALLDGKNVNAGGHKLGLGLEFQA

On to `CN(C)C(=N)N=C(N)N` [Metformin], for which the affinity, expressed as Kd, was 204 µM.
